Measurements as given in patent publication US20260191933A1, “PHARMACEUTICAL COMBINATIONS AND USES THEREOF” (The University of Melbourne, priority 2022, published 2026).

Columns and labels:
[1] = tested on: 12-week HFHS fed obese mice; assay: I.C.V. fluorosamine in obese mice: body weight, adiposity, energy expenditure, food intake; format: in vivo, C57BL/6J mice; settings: I.C.V. for 10 days
Protocol: Metabolic measurements were undertaken in the Melbourne Mouse Metabolic Phenotyping Platform (The University of Melbourne, Australia). Glucose tolerance tests were performed on 6 h fasted conscious mice respectively by injecting D-glucose (2 mg/g of lean body mass and 1 mg/g lean mass for db/db and HFHS+STZ mice) into the peritoneal cavity and measuring glucose in tail blood immediately before and at 15, 30, 45, 60, 90 and 120 min after injection using an Accu-Check glucometer (Roche, Germany). The areas under glucose excursion curves were determined and expressed as mmol/l×min. Fasted (12 h fast) plasma insulin or glucose levels were determined using a Rat/Mouse Insulin ELISA (EZRMI-13K, Merck Millipore, CA) or an Accu-Check glucometer respectively. The HOMA-IR was calculated using the equation [(glucose×insulin)/405]. Adiposity was measured using TD-NMR minispec (Bruker Optics Inc., Billerica, MA).
Mice were acclimated for 24 h and then monitored for 48 h in an environmentally controlled Promethion Metabolic Screening System (Sable Systems International, NV) fitted with indirect open circuit calorimetry, food consumption and activity monitors to measure activity, caloric intake and energy expenditure. Respiratory quotients were calculated as the ratio of CO2 production over O2 consumption respiratory exchange ratio and energy expenditure was calculated using the Weir equation (Kcal h−1=60×(0.003941×VO2+0.001106×VCO2). To account for difference in body mass/composition energy expenditure was analysed and adjusted using ANCOVA using scripts available at the National Mouse Metabolic Phenotyping Centers (MMPC, Nashville, TN, USA) Energy Expenditure Analysis Page (https://www.mmpc.org/shared/regression.aspx).
Under isoflurane anaesthetic 12-week HFHS fed C57BL/6J or AgRP-Cas9 mice were implanted stereotaxically with guide cannulas into the right lateral ventricle (0.2 mm posterior, 1.0 mm lateral from bregma). Guide cannula was positioned 1.3 mm above the injection site (1 mm ventral to the surface of the skull). AgRP-Cas9 mice were treated with either AAV-gScrambled or AAV-gIR and underwent guide cannula placement 7 days post AAV administration. Mice were administered I.C.V. vehicle (ddH2O), fluorosamine (100 μg/animal/day or 250 μgl/animal/day) in a volume of 2 μl/animal and all compounds were delivered approximately 1 h before lights off (7 pm).

[2] = tested on: HFHS plus low dose STZ mice; assay: I.C.V. fluorosamine in late-stage type-2 diabetes model (HFHS plus low dose streptozotocin); format: in vivo, C57BL/6J mice; settings: I.C.V. for 14 days
Protocol: Mice were maintained on a 12 h light-dark cycle in a temperature-controlled high-barrier facility with free access to food and water per NHMRC Australian Code of Practice for the Care and Use of Animals. C57BL/6J and Balb/C mice were sourced from the Animal Resources Centre, Australian, whereas Agrp-IRES-Cre (Strain #:012899), db/db (strain #: 000697), Npy-GFP (Strain #:006417), Pomc-GFP (Strain #:009593), LSL-Cas9 (Strain #:028551), NZO (Strain #:002105) mice were sourced from Jackson Laboratories, USA. […]
Metabolic measurements were undertaken in the Melbourne Mouse Metabolic Phenotyping Platform (The University of Melbourne, Australia). […] The areas under glucose excursion curves were determined and expressed as mmol/l×min. Fasted (12 h fast) plasma insulin or glucose levels were determined using a Rat/Mouse Insulin ELISA (EZRMI-13K, Merck Millipore, CA) or an Accu-Check glucometer respectively. The HOMA-IR was calculated using the equation [(glucose×insulin)/405]. Adiposity was measured using TD-NMR minispec (Bruker Optics Inc., Billerica, MA). […]

[3] = tested on: GLP-1 receptor signalling (pERK) in the ARC; assay: I.C.V. PZ6005 and/or S.C. liraglutide: ARC pERK +ve. cells after liraglutide; format: in vivo, C57BL/6j mice; settings: after 28-day treatment; compared to controls and liraglutide alone

Compound: CC(=O)NC1C(OC(C)=O)OC(COC(C)=O)[C@@H](F)C1OC(C)=O (stereo partly drawn) [PZ6005, per-O-acetylated-4-F-N-acetylglucosamine]
- adiposity [1]: reduced adiposity
- body weight [1]: promoted weight loss
- energy expenditure ([1]; independently of ambulatory activity): enhanced energy expenditure
- food intake ([1]; through enhanced satiety): supressed food intake
- remission of metabolic disease (daily blood glucose, glucose tolerance) [2]: promote the remission of metabolic disease
- ARC pERK +ve. cells [3]: markedly increased
